For 18 molecules, Ki results are on record in patent US8394834B2, “Pyrrolidines as NK3 receptor antagonists” (Hoffman-La Roche Inc., priority 2009, dated 2013).

The test addresses T1, recombinant human NK3 receptor (Homo sapiens, UniProt P29371).
T1 construct: expressed in transfected cells; host or cells: HEK293 cells (transient expression), membranes
T1 sequence (P29371 1-465): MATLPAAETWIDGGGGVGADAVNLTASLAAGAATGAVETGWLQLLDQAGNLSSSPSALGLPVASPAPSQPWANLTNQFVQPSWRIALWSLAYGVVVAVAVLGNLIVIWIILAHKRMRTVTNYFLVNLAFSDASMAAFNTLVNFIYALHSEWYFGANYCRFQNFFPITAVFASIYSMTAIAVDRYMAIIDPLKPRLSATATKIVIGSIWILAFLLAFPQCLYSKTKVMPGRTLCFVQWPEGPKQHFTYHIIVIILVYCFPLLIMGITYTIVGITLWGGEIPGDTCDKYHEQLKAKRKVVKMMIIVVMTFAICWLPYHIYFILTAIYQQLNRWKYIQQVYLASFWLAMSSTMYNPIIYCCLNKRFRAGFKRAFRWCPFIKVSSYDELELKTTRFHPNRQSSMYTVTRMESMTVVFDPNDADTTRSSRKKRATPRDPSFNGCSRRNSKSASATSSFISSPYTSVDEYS
The test is described as follows: [3H]SR142801 competition binding assay. The conditions noted are these: hNK3 receptor, membranes from HEK293 cells transiently expressing the receptor, [3H]SR142801 radioligand. As to the method:
[^3H]SR142801 Competition Binding Assay
hNK3 receptor binding experiment were performed using [^3H]SR142801 (Catalog No. TRK1035, specific activity: 74.0 Ci/mmol, Amersham, GE Healthcare UK limited, Buckinghamshire, UK) and membrane isolated from HEK293 cells transiently expressing recombinant human NK3 receptor. After thawing, the membrane homogenates were centrifuged at 48,000×g for 10 min at 4° C., the pellets were resuspended in the 50 mM Tris-HCl, 4 mM MnCl2, 1 μM phosphoramidon, 0.1% BSA binding buffer at pH 7.4 to a final assay concentration of 5 μg protein/well. For inhibition experiments, membranes were incubated with [^3H]SR142801 at a concentration equal to KD value of radioligand and 10 concentrations of the inhibitory compound (0.0003-10 μM) (in a total reaction volume of 500 μl) for 75 min at room temperature (RT). At the end of the incubation, membranes were filtered onto unitfilter (96-well white microplate with bonded GF/C filter preincubated 1 h in 0.3% PEI+0.3% BSA, Packard BioScience, Meriden, Conn.) with a Filtermate 196 harvester (Packard BioScience) and washed 4 times with ice-cold 50 mM Tris-HCl, pH 7.4 buffer. Nonspecific binding was measured in the presence of 10 μM SB222200 for both radioligands. The radioactivity on the filter was counted (5 min) on a Packard Top-count microplate scintillation counter with quenching correction after addition of 45 μl of microscint 40 (Can berra Packard S. A., Zürich, Switzerland) and shaking for 1 h. Inhibition curves were fitted according to the Hill equation: […]), where nH=slope factor using Excel-fit 4 software (Microsoft). IC50 values were derived from the inhibition curve and the affinity constant (Ki) values were calculated using the Cheng-Prussoff equation Ki=IC50/(1+[L]/KD) where [L] is the concentration of radioligand and KD is its dissociation constant at the receptor, derived from the saturation isotherm. All experiments were performed in duplicate and the mean±standard error (SEM) of the individual Ki values was calculated.
As for `C[C@H](Oc1ccc(Cl)cn1)[C@H]1CN(C(=O)C2CCN(c3ccc(C#N)cn3)CC2)C[C@@H]1c1ccc(Cl)cc1` [Example 1, 4-{(3S,4R)-3-(4-Chloro-phenyl)-4-[1-((S)-5-chloro-pyridin-2-yloxy)-ethyl]-pyrrolidine-1-carbonyl}-3,4,5,6-tetrahydro-2H-[1,2′]bipyridinyl-5′-carbonitrile], the Ki amounted to 0.4 nM.

For `C[C@H](Oc1ccc(Cl)cn1)[C@H]1CN(C(=O)C2CCN(c3cnccn3)CC2)C[C@@H]1c1ccc(Cl)cc1` [Example 2, {(3S,4R)-3-(4-Chloro-phenyl)-4-[1-((S)-5-chloro-pyridin-2-yloxy)-ethyl]-pyrrolidin-1-yl}-(1-pyrazin-2-yl-piperidin-4-yl)-methanone], the Ki is 1.9 nM.

`C[C@H](Oc1ccc(Cl)cn1)[C@H]1CN(C(=O)C2CCN(c3ncccn3)CC2)C[C@@H]1c1ccc(Cl)cc1` [Example 3, {(3S,4R)-3-(4-Chloro-phenyl)-4-[1-((S)-5-chloro-pyridin-2-yloxy)-ethyl]-pyrrolidin-1-yl}-(1-pyrimidin-2-yl-piperidin-4-yl)-methanone]: the Ki amounted to 2.1 nM.

As to `C[C@H](Oc1ccc(Cl)cn1)[C@H]1CN(C(=O)C2CCN(c3ccc(C(F)(F)F)cn3)CC2)C[C@@H]1c1ccc(Cl)cc1` [Example 4, {(3S,4R)-3-(4-Chloro-phenyl)-4-[1-((S)-5-chloro-pyridin-2-yloxy)-ethyl]-pyrrolidin-1-yl}-(5′-trifluoromethyl-3,4,5,6-tetrahydro-2H-[1,2′]bipyridinyl-4-yl)-methanone], the Ki is 0.8 nM.

For `CC(=O)c1ccc(N2CCC(C(=O)N3C[C@H]([C@H](C)Oc4ccc(Cl)cn4)[C@@H](c4ccc(Cl)cc4)C3)CC2)cc1` [Example 5, 1-[4-(4-{(3S,4R)-3-(4-Chloro-phenyl)-4-[1-((S)-5-chloro-pyridin-2-yloxy)-ethyl]-pyrrolidine-1-carbonyl}-piperidin-1-yl)-phenyl]-ethanone], the Ki turned out to be 0.4 nM.

Turning to `C[C@H](Oc1ccc(Cl)cn1)[C@H]1CN(C(=O)C2CCN(c3ccc(C#N)nn3)CC2)C[C@@H]1c1ccc(Cl)cc1` [Example 6, 6-(4-{(3S,4R)-3-(4-Chloro-phenyl)-4-[1-((S)-5-chloro-pyridin-2-yloxy)-ethyl]-pyrrolidine-1-carbonyl}-piperidin-1-yl)-pyridazine-3-carbonitrile], the Ki stood at 0.5 nM.

Turning to `C[C@H](Oc1ccc(F)cn1)[C@H]1CN(C(=O)C2CCN(c3ccc(C#N)cn3)CC2)C[C@@H]1c1ccc(Cl)cc1` [Example 7, 4-{(3S,4R)-3-(4-Chloro-phenyl)-4-[1-((S)-5-fluoro-pyridin-2-yloxy)-ethyl]-pyrrolidine-1-carbonyl}-3,4,5,6-tetrahydro-2H-[1,2′]bipyridinyl-5′-carbonitrile], the Ki was found to be 1.2 nM.

For the molecule `C[C@H](Oc1ccc(Cl)cn1)[C@H]1CN(C(=O)C2CCN(c3ccncn3)CC2)C[C@@H]1c1ccc(Cl)cc1` [Example 8, {(3S,4R)-3-(4-Chloro-phenyl)-4-[1-((S)-5-chloro-pyridin-2-yloxy)-ethyl]pyrrolidin-1-yl}-(1-pyrimidin-4-yl-piperidin-4-yl)-methanone], the Ki is 1.3 nM.

In the case of `CC(=O)c1ccc(N2CCC(C(=O)N3C[C@H]([C@H](C)Oc4ccc(Cl)cn4)[C@@H](c4ccc(Cl)cc4)C3)CC2)nc1` [Example 9, 1-(4-{(3S,4R)-3-(4-Chloro-phenyl)-4-[1-((S)-5-chloro-pyridin-2-yloxy)-ethyl]-pyrrolidine-1-carbonyl}-3,4,5,6-tetrahydro-2H-[1,2′]bipyridinyl-5′-yl)-ethanone], the Ki came out at 0.5 nM.

As to `C[C@H](Oc1ccc(Cl)cn1)[C@H]1CN(C(=O)C2CCN(c3ncccc3C#N)CC2)C[C@@H]1c1ccc(Cl)cc1` [Example 10, 4-{(3S,4R)-3-(4-Chloro-phenyl)-4-[1-((S)-5-chloro-pyridin-2-yloxy)-ethyl]-pyrrolidine-1-carbonyl}-3,4,5,6-tetrahydro-2H-[1,2′]bipyridinyl-3′-carbonitrile], the Ki was 6.1 nM.

With `C[C@H](Oc1ccc(Cl)cn1)[C@H]1CN(C(=O)C2CCN(c3cc(C#N)ccn3)CC2)C[C@@H]1c1ccc(Cl)cc1` [Example 11, 4-{(3S,4R)-3-(4-Chloro-phenyl)-4-[1-((S)-5-chloro-pyridin-2-yloxy)-ethyl]-pyrrolidine-1-carbonyl}-3,4,5,6-tetrahydro-2H-[1,2′]bipyridinyl-4′-carbonitrile], the inhibition constant (Ki) came to 0.5 nM.

As to `Cc1ccc(N2CCC(C(=O)N3C[C@H]([C@H](C)Oc4ccc(F)cn4)[C@@H](c4ccc(Cl)cc4)C3)CC2)nn1` [Example 12, {(3S,4R)-3-(4-Chloro-phenyl)-4-[1-((S)-5-fluoro-pyridin-2-yloxy)-ethyl]-pyrrolidin-1-yl}-[1-(6-methyl-pyridazin-3-yl)-piperidin-4-yl]-methanone], the Ki was 2.1 nM.

Take `COc1ccc(N2CCC(C(=O)N3C[C@H]([C@H](C)Oc4ccc(Cl)cn4)[C@@H](c4ccc(Cl)cc4)C3)CC2)nc1` [Example 13, {(3S,4R)-3-(4-Chloro-phenyl)-4-[1-((S)-5-chloro-pyridin-2-yloxy)-ethyl]-pyrrolidin-1-yl}-(5′-methoxy-3,4,5,6-tetrahydro-2H-[1,2′]bipyridinyl-4-yl)-methanone]: the Ki worked out at 0.7 nM.

For `COc1ccc(N2CCC(C(=O)N3C[C@H]([C@H](C)Oc4ccc(Cl)cn4)[C@@H](c4ccc(Cl)cc4)C3)CC2)nn1` [Example 14, {(3S,4R)-3-(4-Chloro-phenyl)-4-[1-((S)-5-chloro-pyridin-2-yloxy)-ethyl]-pyrrolidin-1-yl}-[1-(6-methoxy-pyridazin-3-yl)-piperidin-4-yl]-methanone], the inhibition constant Ki came to 1.2 nM.

In the case of `COc1ccc(N2CCC(C(=O)N3C[C@H]([C@H](C)Oc4ccc(Cl)cn4)[C@@H](c4ccc(Cl)cc4)C3)CC2)cn1` [Example 15, {(3S,4R)-3-(4-Chloro-phenyl)-4-[1-((S)-5-chloro-pyridin-2-yloxy)-ethyl]-pyrrolidin-1-yl}-(6′-methoxy-3,4,5,6-tetrahydro-2H-[1,3,′]bipyridinyl-4-yl)-methanone], the Ki worked out at 0.5 nM.

`C[C@H](Oc1ccc(F)cn1)[C@H]1CN(C(=O)C2CCN(c3ccc(C#N)nn3)CC2)C[C@@H]1c1ccc(Cl)cc1` [Example 16, 6-(4-{(3S,4R)-3-(4-Chloro-phenyl)-4-[1-((S)-5-fluoro-pyridin-2-yloxy)-ethyl]-pyrrolidine-1-carbonyl}-piperidin-1-yl)-pyridazine-3-carbonitrile]: the Ki turned out to be 0.8 nM.

As to `C[C@H](Oc1ccc(Cl)cn1)[C@H]1CN(C(=O)C2CCN(c3cccc(C#N)n3)CC2)C[C@@H]1c1ccc(Cl)cc1` [Example 17, 4-{(3S,4R)-3-(4-Chloro-phenyl)-4-[1-((S)-5-chloro-pyridin-2-yloxy)-ethyl]-pyrrolidine-1-carbonyl}-3,4,5,6-tetrahydro-2H-[1,2′]bipyridinyl-6′-carbonitrile], the Ki was determined as 1.5 nM.

With `Cc1nnc(N2CCC(C(=O)N3C[C@H]([C@H](C)Oc4ccc(Cl)cn4)[C@@H](c4ccc(Cl)cc4)C3)CC2)o1` [Example 18, {(3S,4R)-3-(4-Chloro-phenyl)-4-[1-((S)-5-chloro-pyridin-2-yloxy)-ethyl]-pyrrolidin-1-yl}-[1-(5-methyl-[1,3,4]oxadiazol-2-yl)-piperidin-4-yl]-methanone], the Ki amounted to 3.1 nM.
